Experimental data published in US11091514B2, “Peptide macrocycles and use thereof in the treatment of bacterial infections” (Hoffmann-La Roche Inc., priority 2017, dated 2021).

Tested on: A. baumannii strain ATCC19606
Assay type: cell-based, Acinetobacter baumannii
Settings: ATCC19606, 20 h
Method: The in vitro antimicrobial activity of the compounds was determined through microbroth minimum inhibitory concentration (MIC) methodology performed according to the Clinical and Laboratory Standard Institute guidelines (CLSI-M07-A9 January 2012. Methods for Dilution Antimicrobial Susceptibility Tests for Bacteria That Grow Aerobically; Approved Standard Ninth Edition, Clinical and Laboratory Standards Institute, Wayne/PA, US and the CLSI-M100-S24 January 2014. Performance Standards for Antimicrobial Susceptibility Testing; Approved Standard—Fourth Informational Supplement, Clinical and Laboratory Standards Institute, Wayne/PA, US).
The compound stock solution was freshly prepared at 10× the required top concentration for the MIC determination, i.e. at 1280 mg/L, by reconstitution of the dry compound in 50:50 water:DMSO.
Polystyrene non-treated 96 wells microtiter plates were used for preparing panel containing compound serial twofold diluted at two times the final testing concentration (e.g. range from 64 to 0.06 μg/ml) in cation adjusted Mueller Hinton broth medium (CAMHB).
Inoculum was prepared by the “direct colony suspension method”. Colonies of A. baumannii ATCC19606 or clinical isolates were suspended in saline solution and adjusted to 0.5 McFarland, diluted 100 times in CAMHB broth and 50 μl added to each well (final concentration of cells˜5×10^(5) CFU/ml and Final volume/well of 100 μl). Microtiter plates were sealed and incubated at 35±2° C.
MICs values were read after 20 hours of incubation and recorded as the lowest concentration of the antimicrobial that inhibits more or equal to 80% of growth of the organism as detected by the unaided eye and using a microtiter plate optical density reader (OD 600 nm).
Table 1 provides the minimum inhibitory concentration (MIC) in microgram per milliliter of the compounds of present invention obtained against the A. baumannii strain ATCC19606.

SMILES | ATCC19606 MIC (minimum inhibitory concentration)
CN1C(=O)[C@H](CCCCN)NC(=O)[C@H](CCCN)NCc2cccc(c2)-c2cc(C(F)(F)F)ccc2CNC(=O)[C@@H]1Cc1c[nH]c2ccccc12 [Example 8, (11S,14S,17S)-14-(4-Amino-butyl)-17-(3-amino-propyl)-11-(1H-indol-3-ylmethyl)-12-methyl-4-trifluoromethyl-9,12,15,18-tetraaza-tricyclo[18.3.1.0*2,7]tetracosa-1(24),2(7),3,5,20,22-hexaene-10,13,16-trione] | 4 µg/mL
CN1C(=O)[C@H](CCCCN)NC(=O)[C@H](CCCN)NCc2cccc(c2)-c2ccccc2CNC(=O)[C@@H]1Cc1c[nH]c2ccccc12 [Example 1, (11S,14S,17S)-14-(4-Amino-butyl)-17-(3-amino-propyl)-11-(1H-indol-3-ylmethyl)-12-methyl-9,12,15,18-tetraaza-tricyclo[18.3.1.0*2,7]tetracosa-1(24),2(7),3,5,20,22-hexaene-10,13,16-trione] | 32 µg/mL
CN1C(=O)[C@H](CCCCN)NC(=O)[C@H](CCCN)NCc2cccc(c2)-c2c(cccc2C(F)(F)F)CNC(=O)[C@@H]1Cc1c[nH]c2ccccc12 [Example 2, (11S,14S,17S)-14-(4-Amino-butyl)-17-(3-amino-propyl)-11-(1H-indol-3-ylmethyl)-12-methyl-3-trifluoromethyl-9,12,15,18-tetraaza-tricyclo[18.3.1.0*2,7]tetracosa-1(24),2(7),3,5,20,22-hexaene-10,13,16-trione] | 2 µg/mL
CN1C(=O)[C@H](CCCCN)NC(=O)[C@H](CCCN)NCc2ccnc(c2)-c2ccc(Cl)cc2CNC(=O)[C@@H]1Cc1c[nH]c2ccccc12 [Example 11, (11S,14S,17S)-14-(4-Amino-butyl)-17-(3-amino-propyl)-5-chloro-11-(1H-indol-3-ylmethyl)-12-methyl-9,12,15,18,23-pentaaza-tricyclo[18.3.1.0*2,7]tetracosa-1(23),2(7),3,5,20(24),21-hexaene-10,13,16-trione] | 32 µg/mL
Cc1cccc2c1-c1cccc(c1)CN[C@@H](CCCN)C(=O)N[C@@H](CCCCN)C(=O)N(C)[C@@H](Cc1c[nH]c3ccccc13)C(=O)NC2 [Example 4, (11S,14S,17S)-14-(4-Amino-butyl)-17-(3-amino-propyl)-11-(1H-indol-3-ylmethyl)-3,12-dimethyl-9,12,15,18-tetraaza-tricyclo[18.3.1.0*2,7]tetracosa-1(23),2(7),3,5,20(24),21-hexaene-10,13,16-trione] | 32 µg/mL
COc1ccc2c(c1)CNC(=O)[C@H](Cc1c[nH]c3ccccc13)N(C)C(=O)[C@H](CCCCN)NC(=O)[C@H](CCCN)NCc1cccc-2c1 [Example 9, (11S,14S,17S)-14-(4-Amino-butyl)-17-(3-amino-propyl)-11-(1H-indol-3-ylmethyl)-5-methoxy-12-methyl-9,12,15,18-tetraaza-tricyclo[18.3.1.0*2,7]tetracosa-1(23),2(7),3,5,20(24),21-hexaene-10,13,16-trione] | 4 µg/mL
Cc1ccc2c(c1)CNC(=O)[C@H](Cc1c[nH]c3ccccc13)N(C)C(=O)[C@H](CCCCN)NC(=O)[C@H](CCCN)NCc1cccc-2c1 [Example 7, (11S,14S,17S)-14-(4-Amino-butyl)-17-(3-amino-propyl)-11-(1H-indol-3-ylmethyl)-5,12-dimethyl-9,12,15,18-tetraaza-tricyclo[18.3.1.0*2,7]tetracosa-1(23),2(7),3,5,20(24),21-hexaene-10,13,16-trione] | 1 µg/mL
CN1C(=O)[C@H](CCCCN)NC(=O)[C@H](CCCN)NCc2cccc(c2)-c2cccc(Cl)c2CNC(=O)[C@@H]1Cc1c[nH]c2ccccc12 [Example 6, (11S,14S,17S)-14-(4-Amino-butyl)-17-(3-amino-propyl)-6-chloro-11-(1H-indol-3-ylmethyl)-12-methyl-9,12,15,18-tetraaza-tricyclo[18.3.1.0*2,7]tetracosa-1(23),2(7),3,5,20(24),21-hexaene-10,13,16-trione] | 32 µg/mL
CN1C(=O)[C@H](CCCCN)NC(=O)[C@H](CCCN)NCc2cccc(c2)-c2ccc(C(F)(F)F)cc2CNC(=O)[C@@H]1Cc1c[nH]c2ccccc12 [Example 3, (11S,14S,17S)-14-(4-Amino-butyl)-17-(3-amino-propyl)-11-(1H-indol-3-ylmethyl)-12-methyl-5-trifluoromethyl-9,12,15,18-tetraaza-tricyclo[18.3.1.0*2,7]tetracosa-1(24),2(7),3,5,20,22-hexaene-10,13,16-trione] | 0.5 µg/mL
CN1C(=O)[C@H](CCCCN)NC(=O)[C@H](CCCN)NCc2cccc(c2F)-c2ccccc2CNC(=O)[C@@H]1Cc1c[nH]c2ccccc12 [Example 10, (11S,14S,17S)-14-(4-Amino-butyl)-17-(3-amino-propyl)-24-fluoro-11-(1H-indol-3-ylmethyl)-12-methyl-9,12,15,18-tetraaza-tricyclo[18.3.1.0*2,7]tetracosa-1(23),2(7),3,5,20(24),21-hexaene-10,13,16-trione] | 16 µg/mL
CN1C(=O)[C@H](CCCCN)NC(=O)[C@H](CCCN)NCc2cccc(c2)-c2ccc(Cl)cc2CNC(=O)[C@@H]1Cc1c[nH]c2ccccc12 [Example 5, (11S,14S,17S)-14-(4-Amino-butyl)-17-(3-amino-propyl)-5-chloro-11-(1H-indol-3-ylmethyl)-12-methyl-9,12,15,18-tetraaza-tricyclo[18.3.1.0*2,7]tetracosa-1(23),2(7),3,5,20(24),21-hexaene-10,13,16-trione] | 4 µg/mL
